Data set [1] has as its target T1, BLVRB (Homo sapiens, UniProt P30043).
T1 sequence (P30043 1-206): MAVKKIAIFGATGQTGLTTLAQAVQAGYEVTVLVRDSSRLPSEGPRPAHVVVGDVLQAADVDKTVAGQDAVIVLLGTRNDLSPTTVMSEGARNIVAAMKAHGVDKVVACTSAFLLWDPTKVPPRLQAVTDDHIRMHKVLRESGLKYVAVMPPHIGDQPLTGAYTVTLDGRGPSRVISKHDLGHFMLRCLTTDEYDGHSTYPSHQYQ
The experiment in a line: Isothermal titration calorimetry (ITC) of compound binding to BLVRB. To be noted: for TΔS / ΔG / ΔH (enthalpy of the reaction) / N (stoichiometry) / contribution from entropy, of the total binding energy: 25 °C; for N (stoichiometry): single-site binding model; for Kd: read-out: KD (dissociation constant), 25 °C. (ITC needs no label: the signal is the heat of the interaction.)

Data set [2] concerns the target T1, BLVRB. The experiment in a line: Dynamic light scattering (DLS) of BLVRB with inhibitor. To be noted: molar ratio 0, 1, 5, 10 compound/BLVRB. From the text: FIGS. 2A and 2B show DLS results of BLVRB depending on the concentration of phloxine B (FIG. 2A) and erythorosin B (FIG. 2B). Molar ratio of the sample is 0, 1, 5, 10 [erythrosin B or phloxine B/BLVRB]. The horizontal axis represents the diameter of each drug on a logarithmic scale. The vertical axis represents the relative intensity of the signal.
(§1) The inhibition mechanism of these two compounds was investigated in physiological environment by NMR.

In data set [3] the target is T1, BLVRB. The experiment in a line: NMR titration (HSQC) experiments with 15N-labeled BLVRB. Conditions: half-holo BLVRB 0.3 mM, ratio up to 1:10. The data set is classed as binding. As for the experimental part:
Ratio 1:0, 1:0.6, 1:1, 1:10 [Half-holo form of BLVRB (0.3 mM):phloxine B and erythrosin B].
as §1
Protein-based NMR spectroscopy is one of the most well-suited methods to identify intermolecular interactions including small molecule and protein interactions. Further, protein-based NMR methods provide information on binding sites, which is of prime interest for optimizing small molecules. Therefore, HSQC experiments of ^15N-labeled BLVRB were performed by titrating increasing amounts of the subject compounds to monitor the chemical shift changes upon the binding of the compounds identified in the enzyme activity assay. In particular, Ser111 was previously identified as a key residue involved in the catalytic mechanism of BLVRB. […] Using the assignment, the chemical shift perturbations (CSPs) of BLVRB by each drug were extracted from the spectra and the binding site of each drug was identified based on the CSPs.
Half-holo form of BLVRB (with NADP^+) was used for NMR experiments. All the subject compounds were dissolved in DMSO-d6. NMR titration and 1D experiments were operated at a ^1H frequency of 800 MHz using a Bruker Avance spectrometer. All experiments were performed at 298 K and 5 mm diameter NMR tubes with a sample volume 500 μL were used.

Another data set has as its system rats. Conditions: chronic administration; cited from earlier work.

The text below walks through data of patent US11744839B2, “Method of increasing platelet counts of a subject” (KOREA BASIC SCIENCE INSTITUTE, priority 2021, dated 2023).

Take `O=C(O)c1cccc(-c2noc(-c3ccccc3F)n2)c1` [Compound of formula 4]: on BLVRB [1], the TΔS was -1.83 ± 0.09 kcal/mol, the ΔG was -9.13 ± 0.07 kcal/mol, the “ΔH (enthalpy of the reaction)” value is -10.96 ± 0.06 kcal/mol and the “N (stoichiometry)” value came to 1.02. Moreover, on BLVRB [1], the Kd (in general, the concentration at which binding is half-saturated) amounted to 0.2 ± 0.02 µM.
For `CC1(C)CCC(C)(C)c2cc(NC(=O)c3ccc(C(=O)O)cc3)ccc21` [Compound of formula 3], on BLVRB [1], the TΔS amounted to 3.50 ± 0.10 kcal/mol; the “contribution from entropy, of the total binding energy” value came to 44%; the ΔG is -7.99 ± 0.08 kcal/mol; the “ΔH (enthalpy of the reaction)” value is -4.49 ± 0.06 kcal/mol. Moreover, at BLVRB [1], the “N (stoichiometry)” value came out at 1.07 and the Kd worked out at 1.38 ± 0.18 µM.
For `Cc1c(Nc2ncccc2C(=O)O)cccc1C(F)(F)F` [Compound of formula 7], on BLVRB [1], the TΔS was 0.41 ± 0.07 kcal/mol, the ΔG was -8.95 ± 0.06 kcal/mol, the “ΔH (enthalpy of the reaction)” value was -8.54 ± 0.04 kcal/mol and the “N (stoichiometry)” value amounted to 0.99. For the same compound, the Kd on BLVRB [1] was 0.27 ± 0.03 µM.
On to `O=C(O)c1cc(/N=N/c2ccc(S(=O)(=O)Nc3ccccn3)cc2)ccc1O` [Compound of formula 1], for which, on BLVRB [1], the TΔS was -0.76 ± 0.07 kcal/mol, the ΔG is -8.67 ± 0.05 kcal/mol, the “ΔH (enthalpy of the reaction)” value was -9.43 ± 0.05 kcal/mol and the “N (stoichiometry)” value is recorded as 0.99. Further, the Kd at BLVRB [1] was 0.44 ± 0.04 µM.
Regarding `O=C(O)c1ccc(-n2nc(-c3ccccc3O)nc2-c2ccccc2O)cc1` [Compound of formula 6], on BLVRB [1], the TΔS is on record as 0.55 ± 0.12 kcal/mol, the ΔG was -7.87 ± 0.07 kcal/mol, the “ΔH (enthalpy of the reaction)” value was -7.32 ± 0.10 kcal/mol and the “N (stoichiometry)” value came to 1.00. Besides, the Kd on BLVRB [1] turned out to be 1.71 ± 0.21 µM.
For `Cc1nc(-c2ccc(OCC(C)C)c(C#N)c2)sc1C(=O)O` [Compound of formula 5] the same measures were 2.14 ± 0.11 kcal/mol, -7.90 ± 0.08 kcal/mol, -5.75 ± 0.08 kcal/mol, 1.01 and 1.63 ± 0.21 µM.
As to `O=C(O)c1cc2ccccc2c(Cc2c(O)c(C(=O)O)cc3ccccc23)c1O` [Compound of formula 8], on BLVRB [1], the TΔS came out at 1.08 ± 0.17 kcal/mol, the ΔG is -7.84 ± 0.10 kcal/mol, the “ΔH (enthalpy of the reaction)” value is -6.76 ± 0.13 kcal/mol and the “N (stoichiometry)” value is 1.01. For the same compound, the Kd at BLVRB [1] was 1.8 ± 0.31 µM.
Turning to `O=C([O-])c1c(Cl)c(Cl)c(Cl)c(Cl)c1-c1c2cc(Br)c(=O)c(Br)c-2oc2c(Br)c([O-])c(Br)cc12.[Na+].[Na+]` [Phloxine B, reference compound], the “size of BLVRB-inhibitor complex” value on BLVRB [2] is “increase in the size of the BLVRB-inhibitor complex”. On BLVRB [1], the TΔS is on record as 4.12 ± 0.12 kcal/mol, the ΔG is -8.00 ± 0.10 kcal/mol, the “ΔH (enthalpy of the reaction)” value was -3.88 ± 0.06 kcal/mol and the “N (stoichiometry)” value stood at 0.99. The Kd on BLVRB [1] is 1.36 ± 0.22 µM. Further, the “multimerization of BLVRB upon addition of compound” value at BLVRB [3] was “induce multimerization of BLVRB”.
`O=C(O)c1ccccc1-c1c2cc(I)c(=O)c(I)c-2oc2c(I)c(O)c(I)cc12` [Erythrosin B, reference compound]: the “size of BLVRB-inhibitor complex” value on BLVRB [2] is “increase in the size of the BLVRB-inhibitor complex”. For the same compound, on BLVRB [1], the TΔS was determined as 2.91 ± 0.13 kcal/mol; the “contribution from entropy, of the total binding energy” value is 31%; the ΔG was -9.28 ± 0.11 kcal/mol; the “ΔH (enthalpy of the reaction)” value is -6.38 ± 0.06 kcal/mol. Moreover, on BLVRB [1], the “N (stoichiometry)” value was determined as 1.04 and the Kd came to 0.16 ± 0.03 µM. For the same compound, on BLVRB [3], the “multimerization of BLVRB upon addition of compound” value is “induce multimerization of BLVRB”. Moreover, the thyroid tumor promotion result in the data set on rats is recorded as “promote thyroid tumors in rats”.
